Data on 30 compounds can be found in ChEMBL document CHEMBL1140122 (J Med Chem, 2008).

Each structure is given as a SMILES string. Bounds are passed on as bounds.

In one series the test system is MCF7. In words: Cytotoxicity against human MCF7 cells after 48 hrs. The series is classed as functional. Particulars: MCF7, 48 h.
The subject of another series is Trypanosoma cruzi. In words: Antitrypanosomal activity against Trypanosoma cruzi Tulahuen C4 in african green monkey Vero cells after 120 hrs. The format is functional, organism-based.
A further series relates to NCI-H460. The series can be described thus: Cytotoxicity against human H460 cells after 48 hrs. The format is functional. Particulars: NCI-H460, 48 h.
In another series the test system is DU-145. In words: Cytotoxicity against human DU145 cells after 48 hrs. The series is classed as functional. Particulars: DU-145, 48 h.
In a further series the test system is K562. The series can be described thus: Cytotoxicity against human K562 cells after 48 hrs. The format is functional. The settings on record: K562, 48 h.
A further series deals with M14. In words: Cytotoxicity against human M14 cells after 48 hrs. The format is functional. The settings on record: M14, 48 h.
A short description of series [1]: Cytotoxicity against BALB mouse 3T3 cells after 48 hrs. The series is classed as cell-based. Particulars: BALB 3T3 cells.
Another series concerns PC-3. In words: Cytotoxicity against human PC3 cells after 48 hrs. The series is classed as functional. Particulars: PC-3, 48 h.
Another series has as its system HT-29. In words: Cytotoxicity against human HT29 cells after 48 hrs. The series is classed as functional. The settings on record: HT-29, 48 h.
The nature of series [2]: Selectivity index, IC50 for african green monkey Vero cells to IC50 for Trypanosoma cruzi Tulahuen C4. The series is classed as functional.
The subject of a further series is Vero. In words: Cytotoxicity against african green monkey Vero cells by MTT assay. The format is cell-based. The settings on record: Chlorocebus sabaeus. In general terms: Tetrazolium assays rely on reduction of a dye to a coloured formazan, in cell work by metabolically active cells.

Take `COc1ccc(CCC(=O)c2c(O)cc(O)cc2OC)cc1`: the GI50 with MCF7 is 65.5 µM; with NCI-H460, 128 µM; with DU-145, more than 206 µM; in the series with K562, 22.8 µM; with M14 it was 109 µM; with PC-3 it was 59.9 µM. Moreover, the GI50 in the series on HT-29 was more than 206 µM. The same compound displayed an IC50 in the series with Trypanosoma cruzi of more than 25 µM. The compound also gave a concentration for 50% growth inhibition (GI50) at 48 h in series [1] of more than 206 µM.
For `COc1cc(O)c(C(=O)/C=C/c2ccc3c(c2)OCO3)c(OC)c1`, the GI50 in the series with MCF7 was 140 µM; in the series with NCI-H460 it was more than 190 µM; with DU-145 it was more than 190 µM; in the series on K562, 18.9 µM; in the series on M14, more than 190 µM; in the series with PC-3, 118 µM. Moreover, in the series on HT-29, the GI50 was more than 190 µM. In the series with Trypanosoma cruzi, this compound gave an IC50 of more than 25 µM. The compound also came in with a GI50 at 48 h in [1] of 39 µM.
As to `C=CCOc1cc(OC)c(C(=O)/C=C/c2ccccn2)c(OCC=C)c1`, the IC50 in the series on Trypanosoma cruzi worked out at 1.9 µM; with Vero, 2.8 µM. Further, the “Ratio IC50” value in series [2] stood at 1.5.
In turn, `C=CCOc1cc(OC)c(C(=O)/C=C/c2ccc[nH]2)c(OCC=C)c1` displayed an IC50 in the series on Trypanosoma cruzi of more than 100 µM.
Consider `C=CCOc1cc(OC)c(C(=O)/C=C/c2ccco2)c(OCC=C)c1`, for which the midpoint of inhibition with Trypanosoma cruzi, the IC50, lay at 12.2 µM. Moreover, in [2], the “Ratio IC50” value was found to be 15.6.
For the compound `C=CCOc1cc(OC)c(C(=O)/C=C/c2ccncc2)c(OCC=C)c1`, the IC50 is 1.5 µM in the series on Trypanosoma cruzi and 2.8 µM with Vero. The “Ratio IC50” value in series [2] is recorded as 1.9.
Regarding `C=CCOc1cc(OC)c(C(=O)/C=C/c2ccc(C(F)(F)F)cc2)c(OCC=C)c1`, the IC50 in the series with Trypanosoma cruzi was 15.6 µM; in the series on Vero, 7.2 µM. Also, the “Ratio IC50” value in [2] was determined as 0.5.
The corresponding values for `C=CCOc1cc(OC)c(C(=O)/C=C/c2ccc(F)cc2)c(OCC=C)c1` are 14.3 µM, 13.6 µM and 0.9.
Turning to `C=CCOc1cc(OC)c(C(=O)/C=C/c2cc(OC)c(OC)c(OC)c2)c(OCC=C)c1`, the figures for the IC50 in the series on Trypanosoma cruzi and with Vero were 3.4 µM and 40.9 µM, respectively. Also, in series [2], the “Ratio IC50” value amounted to 12.
On to `C=CCOc1cc(OC)c(C(=O)/C=C/c2ccc(C)cc2)c(OCC=C)c1`, for which the IC50 in the series on Trypanosoma cruzi is 17.2 µM. For the same compound, in [2], the “Ratio IC50” value was found to be 12.3.
The corresponding values for `C=CCOc1cc(OC)c(C(=O)/C=C/c2cccc(OC)c2)c(OCC=C)c1` are 14.2 µM and 9.9.
`C=CCOc1cc(OC)c(C(=O)/C=C/C=C/c2ccccc2)c(OCC=C)c1` returned an IC50 in the series with Trypanosoma cruzi of more than 25 µM.
Consider `COc1cc(O)c(C(=O)CCc2ccc3c(c2)OCO3)c(OC)c1`, for which the GI50 is 42.4 µM in the series on MCF7; 105 µM in the series with NCI-H460; 60.2 µM in the series on DU-145; 28.2 µM with K562; 82 µM with M14; 39.1 µM in the series with PC-3. Also, the GI50 in the series on HT-29 came out at 145 µM. The compound also had a 50% inhibitory concentration (IC50) with Trypanosoma cruzi of more than 100 µM. In [1], this compound had a GI50 at 48 h of 21.5 µM.
For the compound `COc1ccc(/C=C/C(=O)c2c(O)cc(O)cc2OC)cc1`, the GI50 in the series with MCF7 came out at 17.3 µM; in the series with NCI-H460, 14 µM; in the series with DU-145 it was 9 µM; in the series on K562, 17 µM; in the series with M14, 19.6 µM; in the series on PC-3 it was 19.3 µM. This compound yielded a 50% growth inhibitory concentration (GI50) in the series on HT-29 of 21.6 µM. For the same compound, the IC50 with Trypanosoma cruzi was more than 25 µM. It took 6.7 µM to inhibit growth in series [1] by half (GI50 at 48 h).
For `C=CCOc1cc(OC)c(C(=O)/C=C/c2ccc(O)c(OC)c2)c(OCC=C)c1`, the IC50 with Trypanosoma cruzi is more than 25 µM.
For the compound `C=CCOc1cc(OC)c(C(=O)/C=C/c2ccccc2)c(OCC=C)c1`, the IC50 with Trypanosoma cruzi and in the series with Vero was 17.1 µM each time. Besides, the “Ratio IC50” value in [2] was determined as 1.
Turning to `C=CCOc1cc(OC)c(C(=O)/C=C/c2ccccc2F)c(OCC=C)c1`, the IC50 in the series with Trypanosoma cruzi was 6.2 µM; in the series with Vero, 16.3 µM. Further, the “Ratio IC50” value in [2] was 2.6.
Regarding `C=CCOc1cc(OC)c(C(=O)/C=C/c2ccccc2Br)c(OCC=C)c1`, the IC50 in the series with Trypanosoma cruzi and in the series on Vero was 13.9 µM in each case. Besides, the “Ratio IC50” value in series [2] was determined as 1.
As to `C=CCOc1cc(OC)c(C(=O)/C=C/c2ccc([N+](=O)[O-])cc2)c(OCC=C)c1`, the IC50 with Trypanosoma cruzi is 4.1 µM; in the series on Vero, 12.6 µM. In [2], the “Ratio IC50” value is 3.1.
The corresponding values for `C=CCOc1cc(OC)c(C(=O)/C=C/c2cc(OCC=C)c(Br)c(OCC=C)c2)c(OCC=C)c1` are 6.9 µM, 96.3 µM and 13.9.
`COc1cc(O)cc(O)c1C(=O)/C=C/c1ccc2c(c1)OCO2`: the GI50 in the series with MCF7 was determined as 20.4 µM; with NCI-H460 it was 15.6 µM; with DU-145 it was 12.4 µM; in the series with K562, 16.2 µM; with M14, 22.6 µM; with PC-3, 18.5 µM. Also, halving of growth with HT-29 (GI50) required 20.7 µM. The IC50 in the series with Trypanosoma cruzi stood at 9.4 µM; in the series on Vero, 25.5 µM. For the same compound, the “Ratio IC50” value in series [2] is 2.7. Moreover, in series [1], halving of growth (GI50 at 48 h) required 5.1 µM.
Take `C=CCOc1cc(OC)c(C(=O)/C=C/c2ccc(OC)cc2OC)c(OCC=C)c1`: the results for the IC50 in the series with Trypanosoma cruzi and in the series with Vero were 13.1 µM and 92.6 µM, respectively. For the same compound, the “Ratio IC50” value in series [2] was found to be 7.1.
Regarding `C=CCOc1cc(OC)c(C(=O)/C=C/c2ccc(O)cc2)c(OCC=C)c1`, the half-inhibitory concentration (IC50) in the series on Trypanosoma cruzi was 20.3 µM; with Vero, 76.4 µM. Further, the “Ratio IC50” value in series [2] was determined as 3.8.
The corresponding values for `C=CCOc1cc(OC)c(C(=O)/C=C/c2ccc(Cl)cc2)c(OCC=C)c1` are 8.6 µM, 10.4 µM and 1.2.
Regarding `COc1ccc(CCC(=O)c2c(O)cc(OC)cc2OC)cc1`, the GI50 with MCF7, in the series on NCI-H460, in the series on DU-145, with K562, in the series on M14 and with PC-3 was more than 197 µM throughout. The GI50 in the series with HT-29 was more than 197 µM. For the same compound, in the series on Trypanosoma cruzi, the IC50 is more than 100 µM. This compound registered a GI50 at 48 h in series [1] of more than 197 µM.
In the case of `C=CCOc1cc(OC)c(C(=O)/C=C/c2ccc3c(c2)OCO3)c(OCC=C)c1`, the GI50 in the series on MCF7 worked out at 10.9 µM; in the series with NCI-H460, 14.5 µM; with DU-145, 17.5 µM; in the series on K562, 12.2 µM; in the series on M14 it was 17.2 µM; in the series with PC-3, 9.6 µM. In the series with HT-29, halving of growth (GI50) required 24.1 µM. Moreover, the IC50 with Trypanosoma cruzi stood at 13.6 µM; with Vero it was 73.5 µM. Besides, in series [2], the “Ratio IC50” value amounted to 5.4. This compound yielded a GI50 at 48 h in series [1] of 31.7 µM.
Turning to `C=CCOc1cc(OC)c(C(=O)/C=C/c2ccc(OC)cc2)c(OCC=C)c1`, the GI50 with MCF7 was 19.5 µM; in the series with NCI-H460, 20 µM; in the series on DU-145 it was 21 µM; with K562 it was 16.6 µM; in the series with M14 it was 27.6 µM; in the series on PC-3 it was 18.1 µM. In addition, it took 28.4 µM to inhibit growth in the series on HT-29 by half (GI50). In addition, the figures for the concentration for half-maximal inhibition (IC50) in the series with Trypanosoma cruzi and in the series with Vero were 21.4 µM and 99.9 µM, respectively. The “Ratio IC50” value in series [2] is given as 4.7. Halving of growth in series [1] (GI50 at 48 h) required 41 µM.
In the case of `COc1ccc(/C=C/C(=O)c2c(O)cc(OC)cc2OC)cc1` [FLAVOKAWAIN A], the GI50 in the series on MCF7 is 17.5 µM; in the series on NCI-H460 it was 24.1 µM; with DU-145, 30.8 µM; in the series with K562, 20.5 µM; in the series with M14, 22.5 µM; in the series on PC-3, 15.2 µM. Besides, in the series on HT-29, the concentration for 50% growth inhibition (GI50) was found to be 45.3 µM. Further, in the series with Trypanosoma cruzi, the IC50 is more than 25 µM. Further, the GI50 at 48 h in series [1] came out at 17.2 µM.
With `O=c1[nH]cc(F)c(=O)[nH]1` [FLUOROURACIL], the GI50 with MCF7 turned out to be 6.5 µM; with NCI-H460 it was 4.1 µM; with DU-145 it was 15.4 µM; with K562, 16.7 µM; in the series on M14, 22.4 µM; in the series with PC-3 it was 14.6 µM. This compound also yielded a GI50 with HT-29 of 8.9 µM. The same compound registered a GI50 at 48 h in [1] of less than 1.54 µM.
As to `CC1CS(=O)(=O)CCN1/N=C/c1ccc([N+](=O)[O-])o1` (stereo unspecified) [NIFURTIMOX], the values for the IC50 in the series with Trypanosoma cruzi and in the series with Vero were 0.52 µM and 80.1 µM, respectively. In addition, the “Ratio IC50” value in series [2] amounted to 154.

For orientation: GI50 means the concentration giving 50% growth inhibition. By IC50 is commonly meant the point on the concentration scale where inhibition reaches its midpoint.
